# Non-standard residues stand in square brackets, D forms with d. Residues, ends and D or L forms follow the SMILES beside them. ξ: configuration not given here. Pro(3ξ,4ξ-(CH2)4) = O=C(O)[C@H]1NCC2CCCCC21; Tic = O=C(O)[C@@H]1Cc2ccccc2CN1
# Key:
# [1] = test system: Staphylococcus aureus; experiment: Antibacterial activity against Staphylococcus aureus; format: functional
# [2] = test system: Mycolicibacterium fortuitum; experiment: Antibacterial activity against Mycobacterium ranae; format: functional
SMILES,MIC [1],MIC [2]
CC(C)C[C@H](NC(=O)CNC(=O)[C@@H]1C2CCCCC2CN1C(=O)[C@@H]1Cc2ccccc2CN1C(=O)[C@H](CC(C)C)NC(=O)CNC(=O)[C@@H]1C2CCCCC2CN1C(=O)[C@@H]1Cc2ccccc2CN1C(=O)[C@H](CCCCN)NC(=O)CNC(=O)[C@@H]1C2CCCCC2CN1C(=O)[C@@H]1Cc2ccccc2CN1C(=O)[C@H](CC(C)C)NC(=O)CNC(=O)[C@@H]1C2CCCCC2CN1C(=O)[C@@H]1Cc2ccccc2CN1C(=O)[C@H](CCCCN)NC(=O)CNC(=O)[C@@H]1C2CCCCC2CN1C(=O)[C@@H]1Cc2ccccc2CN1C(=O)[C@H](CC(C)C)NC(=O)CNC(=O)[C@@H]1C2CCCCC2CN1C(=O)[C@@H]1Cc2ccccc2CN1C(=O)[C@@H](CC(C)C)NC(=O)CNC(=O)[C@H](CCCCN)NC(=O)CN)C(=O)N[C@@H](CCCNC(=N)N)C(N)=O (stereo partly specified),100 µM,–
"CC(=O)N[C@@H](Cc1ccccc1)C(=O)N1Cc2ccccc2C[C@H]1C(=O)N1CC2CCCCC2[C@H]1C(=O)N[C@@H](CCCCN)C(=O)N1Cc2ccccc2C[C@H]1C(=O)N1CC2CCCCC2[C@H]1C(=O)N[C@@H](Cc1ccccc1)C(=O)N1Cc2ccccc2C[C@H]1C(=O)N1CC2CCCCC2[C@H]1C(=O)N[C@@H](CCCCN)C(=O)N1Cc2ccccc2C[C@H]1C(=O)N[C@@H](CCCCN)C(=O)N[C@@H](CCCCN)C(=O)N[C@@H](CCCCN)C(=O)N[C@@H](CCCCN)C(N)=O (stereo partly specified) (Ac-F[Tic][Pro(3ξ,4ξ-(CH2)4)]K[Tic][Pro(3ξ,4ξ-(CH2)4)]F[Tic][Pro(3ξ,4ξ-(CH2)4)]K[Tic]KKKK-NH2)",3 µM,30 µM
CC(=O)NCC(=O)N[C@@H](Cc1ccccc1)C(=O)N1Cc2ccccc2C[C@H]1C(=O)NCC(=O)NCC(=O)N[C@@H](CCCCN)C(=O)N1Cc2ccccc2C[C@H]1C(=O)NCC(=O)NCC(=O)N[C@@H](Cc1ccccc1)C(=O)N1Cc2ccccc2C[C@H]1C(=O)NCC(=O)NCC(=O)N[C@@H](CCCCN)C(=O)N1Cc2ccccc2C[C@H]1C(=O)N[C@@H](CCCCN)C(=O)N[C@@H](CCCCN)C(=O)N[C@@H](CCCCN)C(=O)N[C@@H](CCCCN)C(N)=O (Ac-GF[Tic]GGK[Tic]GGF[Tic]GGK[Tic]KKKK-NH2),–,30 µM
"CC(C)C[C@H](NC(=O)CNC(=O)[C@H](CCCCN)NC(=O)CN)C(=O)N1Cc2ccccc2C[C@H]1C(=O)N1CC2CCCCC2[C@H]1C(=O)NCC(=O)N[C@@H](CCCCN)C(=O)N1Cc2ccccc2C[C@H]1C(=O)N1CC2CCCCC2[C@H]1C(=O)NCC(=O)N[C@@H](Cc1ccccc1)C(=O)N1Cc2ccccc2C[C@H]1C(=O)N1CC2CCCCC2[C@H]1C(=O)NCC(=O)N[C@@H](CCCCN)C(=O)N1Cc2ccccc2C[C@H]1C(=O)N1CC2CCCCC2[C@H]1C(=O)NCC(=O)N[C@@H](Cc1ccccc1)C(=O)N1Cc2ccccc2C[C@H]1C(=O)N1CC2CCCCC2[C@H]1C(=O)NCC(=O)N[C@@H](CCCCN)C(=O)N1Cc2ccccc2C[C@H]1C(=O)N1CC2CCCCC2[C@H]1C(=O)NCC(=O)N[C@@H](CCCCN)C(=O)N[C@@H](CCCNC(=N)N)C(N)=O (stereo partly specified) (H-GKGL[Tic][Pro(3ξ,4ξ-(CH2)4)]GK[Tic][Pro(3ξ,4ξ-(CH2)4)]GF[Tic][Pro(3ξ,4ξ-(CH2)4)]GK[Tic][Pro(3ξ,4ξ-(CH2)4)]GF[Tic][Pro(3ξ,4ξ-(CH2)4)]GK[Tic][Pro(3ξ,4ξ-(CH2)4)]GKR-NH2)",10 µM,–

# Next, values leading:
MIC [1],MIC [2],SMILES
10 µM,–,CC(C)C[C@@H](NC(=O)CNC(=O)[C@H](CCCCN)NC(=O)CN)C(=O)N1Cc2ccccc2C[C@H]1C(=O)N1CC2CCCCC2[C@H]1C(=O)NCC(=O)N[C@@H](CCCNC(=N)N)C(=O)N1Cc2ccccc2C[C@H]1C(=O)N1CC2CCCCC2[C@H]1C(=O)NCC(=O)N[C@@H](Cc1ccccc1)C(=O)N1Cc2ccccc2C[C@H]1C(=O)N1CC2CCCCC2[C@H]1C(=O)NCC(=O)N[C@@H](CCCNC(=N)N)C(=O)N1Cc2ccccc2C[C@H]1C(=O)N1CC2CCCCC2[C@H]1C(=O)NCC(=O)N[C@@H](Cc1ccccc1)C(=O)N1Cc2ccccc2C[C@H]1C(=O)N1CC2CCCCC2[C@H]1C(=O)NCC(=O)N[C@@H](CCCNC(=N)N)C(=O)N1Cc2ccccc2C[C@H]1C(=O)N1CC2CCCCC2[C@H]1C(=O)NCC(=O)N[C@@H](CCCCN)C(=O)N[C@@H](CCCNC(=N)N)C(N)=O (stereo partly specified)
10 µM,–,CC(C)C[C@H](NC(=O)CNC(=O)[C@@H]1C2CCCCC2CN1C(=O)[C@@H]1Cc2ccccc2CN1C(=O)[C@H](CCCCN)NC(=O)CNC(=O)[C@@H]1C2CCCCC2CN1C(=O)[C@@H]1Cc2ccccc2CN1C(=O)[C@H](CC(C)C)NC(=O)CNC(=O)[C@@H]1C2CCCCC2CN1C(=O)[C@@H]1Cc2ccccc2CN1C(=O)[C@H](CCCCN)NC(=O)CNC(=O)[C@@H]1C2CCCCC2CN1C(=O)[C@@H]1Cc2ccccc2CN1C(=O)[C@@H](CC(C)C)NC(=O)CNC(=O)[C@H](CCCCN)NC(=O)CN)C(=O)N1Cc2ccccc2C[C@H]1C(=O)N1CC2CCCCC2[C@H]1C(=O)NCC(=O)N[C@@H](CCCCN)C(=O)N1Cc2ccccc2C[C@H]1C(=O)N1CC2CCCCC2[C@H]1C(=O)NCC(=O)N[C@@H](CCCCN)C(=O)N[C@@H](CCCNC(=N)N)C(N)=O (stereo partly specified)
30 µM,–,CC(C)C[C@H](NC(=O)CNC(=O)[C@H](CCCCN)NC(=O)CN)C(=O)N1Cc2ccccc2C[C@H]1C(=O)N1CC2CCCCC2[C@H]1C(=O)N[C@H](Cc1ccccc1)C(=O)N[C@H](CCCCN)C(=O)N1Cc2ccccc2C[C@@H]1C(=O)N1CC2CCCCC2[C@H]1C(=O)N[C@H](CCCCN)C(=O)N[C@H](Cc1ccccc1)C(=O)N1Cc2ccccc2C[C@H]1C(=O)N1CC2CCCCC2[C@@H]1C(=O)N[C@H](Cc1ccccc1)C(=O)N[C@H](CCCCN)C(=O)N1Cc2ccccc2C[C@@H]1C(=O)N1CC2CCCCC2[C@H]1C(=O)N[C@@H](CCCCN)C(=O)N[C@@H](Cc1ccccc1)C(=O)N1Cc2ccccc2C[C@@H]1C(=O)N1CC2CCCCC2[C@H]1C(=O)N[C@H](Cc1ccccc1)C(=O)N[C@H](CCCCN)C(=O)N1Cc2ccccc2C[C@@H]1C(=O)N1CC2CCCCC2[C@@H]1C(=O)N[C@H](Cc1ccccc1)C(=O)N[C@@H](CCCCN)C(=O)N[C@@H](CCCNC(=N)N)C(N)=O (stereo partly specified)
–,100 µM,"CC(=O)NCC(=O)N[C@@H](Cc1ccccc1)C(=O)NCC(=O)N1CC2CCCCC2[C@H]1C(=O)NCC(=O)N[C@@H](CCCCN)C(=O)NCC(=O)N1CC2CCCCC2[C@H]1C(=O)NCC(=O)N[C@@H](Cc1ccccc1)C(=O)NCC(=O)N1CC2CCCCC2[C@H]1C(=O)NCC(=O)N[C@@H](CCCCN)C(=O)NCC(=O)N[C@@H](CCCCN)C(=O)N[C@@H](CCCCN)C(=O)N[C@@H](CCCCN)C(=O)N[C@@H](CCCCN)C(N)=O (stereo partly specified) (Ac-GFG[Pro(3ξ,4ξ-(CH2)4)]GKG[Pro(3ξ,4ξ-(CH2)4)]GFG[Pro(3ξ,4ξ-(CH2)4)]GKGKKKK-NH2)"
–,100 µM,"CC(=O)NCC(=O)N[C@@H](Cc1ccccc1)C(=O)N1CC2CCCCC2[C@H]1C(=O)NCC(=O)N[C@@H](CCCCN)C(=O)N1CC2CCCCC2[C@H]1C(=O)NCC(=O)N[C@@H](Cc1ccccc1)C(=O)N1CC2CCCCC2[C@H]1C(=O)NCC(=O)N[C@@H](CCCCN)C(=O)N[C@@H](CCCCN)C(=O)N[C@@H](CCCCN)C(=O)N[C@@H](CCCCN)C(=O)N[C@@H](CCCCN)C(N)=O (stereo partly specified) (Ac-GF[Pro(3ξ,4ξ-(CH2)4)]GK[Pro(3ξ,4ξ-(CH2)4)]GF[Pro(3ξ,4ξ-(CH2)4)]GKKKKK-NH2)"
–,30 µM,CC(=O)NCC(=O)N[C@@H](Cc1ccccc1)C(=O)N1Cc2ccccc2C[C@H]1C(=O)NCC(=O)N[C@@H](CCCCN)C(=O)N1Cc2ccccc2C[C@H]1C(=O)NCC(=O)N[C@@H](Cc1ccccc1)C(=O)N1Cc2ccccc2C[C@H]1C(=O)NCC(=O)N[C@@H](CCCCN)C(=O)N1Cc2ccccc2C[C@H]1C(=O)N[C@@H](CCCCN)C(=O)N[C@@H](CCCCN)C(=O)N[C@@H](CCCCN)C(=O)N[C@@H](CCCCN)C(N)=O (Ac-GF[Tic]GK[Tic]GF[Tic]GK[Tic]KKKK-NH2)
